Test results from patent US5807899A, “Triphenylethylenes, process for their production, pharmaceutical preparations that contain these triphenylethylenes as well as their use for the production of pharmaceutical agents” (Schering Aktiengesellschaft, priority 1995, dated 1998).

Legend:
HeLa cell line = assay: Transactivation assay for antiestrogenic action, HeLa cell line; type: cell-based; conditions: Homo sapiens, antiestrogenic action in transactivation assay
Description: The compounds of general formula I according to this application are distinguished by a new type of side chain on the phenoxy radical in comparison to the already known tamoxifen derivatives. […] As mentioned an estrogenic partial action can also be present in the-compounds according to the invention. The antiestrogenic and optionally estrogenic action of the compounds according to the invention was determined in a transactivation assay [Demirpence, E.; Duchesne, M.-J.; Badia, E.; Gagne, D.; and Pons, M.: MVLN Cells: A Bioluminescent MCF-7-Derived Cell Line to Study the Modulation of Estrogenic Activity; J. Steroid Molec. Biol.. Vol. 46, No. 3, 355-364 (1993) as well as Savouret, J. F.; Bailly, A.; Misrahi, M.; Rauch, C.; Redeuilh, G.; Chauchereau, A. and Milgrom, E.: Characterization of the Hormone Responsive Element Involved in the Regulation of the Progesterone Receptor Gene, The EMBO Journal Vol. 10, No. 7, 1875-1883 (1991)].
The IC50 values for the new compounds lie in the nanomolar range. In the HeLa cell line, the following IC50 values are produced for the compounds of Examples 5, 12, 13 and 16 (test implementation according to the bibliographic references indicated above): […]

[1] = test system: estrogens (antiestrogenic / estrogenic activity); conditions: reference compound; cited from earlier work

Molecule `CCC(=C(c1ccc(O)cc1)c1ccc(OCCCCCSCc2ccccn2)cc1)c1ccccc1` [Example 11, 4-((E,Z)-2-Phenyl-1-{4-[5-(pyridin-2-ylmethylsulfidyl)-pentyloxy]-phenyl}-but-1-enyl)-phenol] has an IC50 (HeLa cell line) of 5 nM.
`CCC(=C(c1ccc(I)cc1)c1ccc(OCCCCC[S+]([O-])CCCC(F)(F)C(F)(F)F)cc1)c1ccccc1` (centres unmarked) [Example 15, (5-{4-[(E,Z)-1-(4-Iodophenyl)-2-phenyl-but-1-enyl]-phenoxy}-pentyl)-(4,4,5,5,5-pentafluoropentyl)-sulfoxide] gave an IC50 (HeLa cell line) of 17 nM.
Molecule `CCC(=C(c1ccc(O)cc1)c1ccc(OCCCCC[S+]([O-])CCCC(F)(F)C(F)(F)F)cc1)c1ccccc1` (centres unmarked) [Example 5, 4-(1-{4-[5-(4,4,5,5,5-Pentafluoropentanesulfinyl)-pentyloxy]-phenyl}-2-phenyl-but-1-enyl)-phenol] has an IC50 (HeLa cell line) of 1 nM.
With `CCC(=C(c1ccc(O)cc1)c1ccc(OCCCCC[S+]([O-])Cc2ccccn2)cc1)c1ccccc1` (centres unmarked) [Example 12, 4-((E,Z)-2-Phenyl-1-{4-[5-(pyridin-2-ylmethanesulfinyl)-pentyloxy]-phenyl}-but-1-enyl)-phenol] the IC50 (HeLa cell line) was 2.8 nM.
In the case of `CC/C(=C(\c1ccccc1)c1ccc(OCCN(C)C)cc1)c1ccccc1` [tamoxifen], the “antiestrogenic / estrogenic profile of tamoxifen” value [1] is listed as “antiestrogens with estrogenic partial action”.
